In the supplement of paper PMC11451515:

Legend:
Assay in all cases: AUC of viability dose-response curve (% viability x log10 dose units); higher = less sensitive
Settings in all cases: 48 h
NOMO1 = tested on: NOMO1
Method in brief: (§1)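 Leukemia cells adapted to each medium were seeded in 1536-well plates (500 or 1000 cells/well) and given library compounds in DMSO for 48 h at 37°C. The 11 threefold doses spanned 47 μM to 0.79 nM, and CellTiter-Glo One luminescence was normalised per plate to DMSO and cell-free wells before four-parameter log-logistic fitting on log10 dose. Area under the curve was integrated with the trapezoidal rule, scaling curves above full viability and removing curves that failed quality control.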

P12-Ichikawa = tested on: P12-Ichikawa
Method in brief: as §1

SEM cells = tested on: SEM cells
Method in brief: as §1

[1] = RPMI 5 mM glucose + 10% dialyzed FBS

| Structure (SMILES) | AUC of viability dose-response curve (NOMO1; HPLM + 10% dialyzed FBS) | AUC of viability dose-response curve (NOMO1; RPMI 5 mM glucose + 10% FBS) | AUC of viability dose-response curve (NOMO1; [1]) | AUC of viability dose-response curve (P12-Ichikawa; HPLM + 10% dialyzed FBS) | AUC of viability dose-response curve (P12-Ichikawa; RPMI 5 mM glucose + 10% FBS) | AUC of viability dose-response curve (P12-Ichikawa; [1]) | AUC of viability dose-response curve (SEM cells; HPLM + 10% dialyzed FBS) | AUC of viability dose-response curve (SEM cells; RPMI 5 mM glucose + 10% FBS) | AUC of viability dose-response curve (SEM cells; [1]) |
| --- | --- | --- | --- | --- | --- | --- | --- | --- | --- |
| O=C(O)C(=O)Nc1cccc(-c2nnn[nH]2)c1 | 463 | 457 | 452 | 455 | 477 | 470 | 422 | 451 | 462 |
| Cc1ccc([S+](=O)([O-])NC(=O)NN2CC3CCCC3C2)cc1 (configuration not stated) | 433 | 436 | 439 | 388 | 378 | 371 | 369 | 334 | 337 |
| C=C1C(=O)O[C@@H]2[C@H]3O[C@]3(C)CC/C=C(\C)CC[C@@H]12 | 360 | 375 | 386 | 347 | 358 | 351 | 328 | 275 | 329 |
| CCNC(=O)c1noc(-c2cc(C(C)C)c(O)cc2O)c1-c1ccc(CN2CCOCC2)cc1 | 253 | 240 | 248 | 333 | 302 | 312 | 225 | 224 | 232 |
| OCCN1CCN(CCCN2c3ccccc3Sc3ccc(C(F)(F)F)cc32)CC1 | 411 | 420 | 454 | 403 | 402 | 418 | – | – | – |
| CN1CCN(CC1)C/2=N/C3=CC=CC=C3NC4=C2C=C(C)S4 | – | – | – | 465 | 458 | 458 | 467 | 454 | 473 |
| COC(=O)Nc1nc2cc(Sc3ccccc3)ccc2[nH]1 | 377 | 391 | 387 | 377 | 376 | 382 | 377 | 365 | 371 |
| CO[C@H]1C[C@H]2OC[C@@]2(OC(C)=O)[C@H]3[C@H](OC(=O)C4=CC=CC=C4)[C@]5(O)C[C@H](OC(=O)[C@H](O)[C@@H](NC(=O)OC(C)(C)C)C6=CC=CC=C6)/C(=C(/[C@@H](OC)C(=O)[C@]13C)C5(C)C)C | 125 | 135 | 143 | 135 | 142 | 171 | – | – | – |
| CN1CCC(=C2c3ccccc3CCc3sccc32)CC1 | 460 | 477 | 466 | 472 | 471 | 465 | 453 | 459 | 464 |
| Cc1ccc(C)c(OCCCC(C)(C)C(=O)O)c1 | 457 | 449 | 447 | 458 | 429 | 413 | 442 | 456 | 453 |
| CON(C)C(=O)N1\N=C(/S[C@]1(CCCN)C2=CC=CC=C2)C3=CC(=CC=C3F)F | – | – | – | – | – | – | 130 | 103 | 105 |
| CNC(=O)c1cc(Oc2ccc(NC(=O)Nc3ccc(Cl)c(C(F)(F)F)c3)c(F)c2)ccn1 | 444 | 438 | 440 | 422 | 422 | 427 | 296 | 314 | 275 |
| O=C(O)CCCc1ccc(N(CCCl)CCCl)cc1 | 468 | 464 | 465 | 455 | 456 | 462 | 458 | 451 | 458 |
| Clc1ccc(C(Cn2ccnc2)OCc2ccsc2Cl)c(Cl)c1 (configuration not stated) | 470 | 476 | 457 | 467 | 461 | 464 | 456 | 467 | 463 |
| CN(C)[C@H]\1[C@@H]2[C@@H](O)[C@H]3\C(=C(O)/[C@]2(O)C(=O)\C(=C1O)C(N)=O)C(=O)C4=C(C=CC=C4O)[C@@]3(C)O | 448 | 459 | 449 | 454 | 456 | 421 | 459 | 463 | 476 |
| O=C(N[C@H]1CN2CCC1CC2)c1ccc(Cl)cc1 | 462 | 470 | 469 | 467 | 469 | 466 | 457 | 439 | 468 |
| N#C[C@@H]1C[C@@H]2C[C@@H]2N1C(=O)[C@@H](N)C12CC3CC(CC(O)(C3)C1)C2 | 400 | 466 | 450 | 462 | 433 | 451 | 465 | 426 | 455 |
| CC[P](CC)(CC)=[Au][S][C@@H]1O[C@H](COC(C)=O)[C@@H](OC(C)=O)[C@H](OC(C)=O)[C@H]1OC(C)=O | 357 | 344 | 354 | 375 | 339 | 331 | 327 | 336 | 315 |
| O=C(Nc1ccncc1)C(=O)c1cn(Cc2ccc(Cl)cc2)c2ccccc12 | 306 | 315 | 311 | 281 | 275 | 288 | 249 | 237 | 247 |

| Structure (SMILES) | AUC of viability dose-response curve (NOMO1; HPLM + 10% dialyzed FBS) | AUC of viability dose-response curve (NOMO1; RPMI 5 mM glucose + 10% FBS) | AUC of viability dose-response curve (NOMO1; [1]) | AUC of viability dose-response curve (P12-Ichikawa; HPLM + 10% dialyzed FBS) | AUC of viability dose-response curve (P12-Ichikawa; RPMI 5 mM glucose + 10% FBS) | AUC of viability dose-response curve (P12-Ichikawa; [1]) | AUC of viability dose-response curve (SEM cells; HPLM + 10% dialyzed FBS) | AUC of viability dose-response curve (SEM cells; RPMI 5 mM glucose + 10% FBS) | AUC of viability dose-response curve (SEM cells; [1]) |
| --- | --- | --- | --- | --- | --- | --- | --- | --- | --- |
| CN(C)Cc1cccc(N/C(=C2\C(=O)Nc3cc(C(=O)N(C)C)ccc32)c2ccccc2)c1 | 418 | 433 | 444 | 455 | 453 | 458 | 420 | 394 | 411 |
| O=C(O)CCc1ccc(NCc2cccc(Oc3ccccc3)c2)cc1 | 446 | 441 | 444 | 464 | 449 | 471 | 406 | 439 | 413 |
| COc1ccccc1OCC(O)CN1CCN(CC(=O)Nc2c(C)cccc2C)CC1 (configuration not stated) | 460 | 453 | 465 | 467 | 469 | 468 | 433 | 471 | 469 |
| CC=CC1=C(C(=O)O)N2C(=O)[C@@H](NC(=O)[C@H](N)c3ccc(O)cc3)[C@H]2SC1.O | 370 | 342 | 376 | 415 | 416 | 429 | 395 | 460 | 447 |
| CCOC(=O)c1c(/C(C#N)=C\N)c2ccc(Cl)c(Cl)c2n1C | 442 | 395 | 407 | 432 | 412 | 429 | 412 | 427 | 408 |
| O=C(/C=C/c1cccnc1)NCCCCC1CCN(C(=O)c2ccccc2)CC1 | 102 | 125 | 113 | 81 | 93.4 | 98 | – | – | – |
| COc1cc2nc(N3CCN(C(=O)c4ccco4)CC3)nc(N)c2cc1OC | 411 | 384 | 392 | – | – | – | 332 | 383 | 377 |
| CCN(CCO)CCCC(C)Nc1ccnc2cc(Cl)ccc12 (configuration not stated) | 417 | 429 | 459 | 392 | 400 | 384 | – | – | – |
| CN1\C(=C(O)/C2=C(C=C(Cl)S2)[S+]1([O-])=O)C(=O)NC3=NC=CC=C3 | 459 | 464 | 477 | 438 | 472 | 458 | – | – | – |
| COC1=C(CC=C(C)C)C2=C(\C=C/C(=O)O2)C=C1 | 470 | 455 | 460 | 413 | 439 | 416 | – | – | – |
| C[C@@H](Oc1ccc2[nH]nc(/C=C/c3cnn(CCO)c3)c2c1)c1c(Cl)cncc1Cl | 401 | 379 | 381 | 386 | 385 | 374 | – | – | – |
| Cc1ccnc(N[S+](=O)([O-])c2ccc(NC(=O)Nc3ccc([S+](=O)([O-])Nc4nccc(C)n4)cc3)cc2)n1 | – | – | – | 274 | 279 | 270 | 236 | 180 | 210 |
| Cc1ccccc1C(C(=O)NC1CCCC1)N(C(=O)Cn1cnc2ccccc21)c1cccc(F)c1 (configuration not stated) | – | – | – | 446 | 439 | 446 | 429 | 464 | 469 |
| O=C(O)c1nn(Cc2ccc(Cl)cc2Cl)c2ccccc12 | – | – | – | 423 | 412 | 379 | 387 | 400 | 375 |
| O=P1(NCCCl)OCCCN1CCCl (configuration not stated) | – | – | – | 424 | 402 | 391 | – | – | – |
| O=C1N\N=C(\C[C@@H]2CCN(C2)C(=O)C3CC3)N1C4=CC=C(C=C4)C5=CC=C6OC=CC6=C5 | 448 | 397 | 394 | 400 | 376 | 405 | – | – | – |
| COc1cc([C@@H]2c3cc4c(cc3[C@@H](O[C@@H]3O[C@@H]5CO[C@@H](C)O[C@H]5[C@H](O)[C@H]3O)[C@H]3COC(=O)[C@H]23)OCO4)cc(OC)c1O | 345 | 314 | 311 | 268 | 239 | 244 | – | – | – |
| COC1=CC2=C(C=C1CC3=C(F)C(=CC=C3)Cl)C(=O)\C(=C/N2[C@H](CO)C(C)C)C(O)=O | 445 | 452 | 454 | 446 | 421 | 423 | – | – | – |
| CC(=O)O[C@@]12CO[C@@H]1C[C@H](O)[C@]3(C)[C@@H]2[C@H](OC(=O)C4=CC=CC=C4)[C@]5(O)C[C@H](O)/C(=C(/[C@@H](O)C3=O)C5(C)C)C | 423 | 430 | 430 | 421 | 411 | 426 | – | – | – |
